Measurements published in patent US20250170248A1, “SMARCA DEGRADERS AND USES THEREOF” (Kymera Therapeutics, Inc., priority 2021, published 2025).

Experiments:
Format in all cases: cell-based
SMARCA2 [1] = target: T1, SMARCA2 (Homo sapiens, UniProt P51531); test: MSD SMARCA2 degradation in A549 cell line; conditions: for Dmax: A549, A549 cells; for Dmax / DC50: 24 h; for DC50 / SMARCA2 MSD A549 degradation 24 h: Average Dmax %: A549 cells; for DC50: read-out: SMARCA2 MSD A549 degradation 24 h: Average external-Abs DC50
In short: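 A549 cells treated 24 h with compound, 3-fold series from 1000 nM. Lysates captured on MSD plates and SMARCA2 quantified with anti-SMARCA2 and SULFO-TAG secondary antibodies (electrochemiluminescence). DC50 and Dmax (% degradation at 24 h) reported as letter bins.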

SMARCA4 = target: T2, SMARCA4 (Homo sapiens, UniProt P51532); test: SMARCA4 Western blot degradation in MV4-11 cells; conditions: for Dmax: MV4-11, MV4-11 cells, read-out: SMARCA4 MSD MV411 degradation 24 h: average Dmax %; for Dmax / DC50: 24 h; for DC50 / SMARCA4 MSD MV411 degradation 24 h: average Dmax %: MV4-11 cells; for DC50: read-out: SMARCA4 MSD MV411 degradation 24 h: Mean external-Abs DC50
T2 construct: SMARCA2/SMARCA4 protein degradation selectivity in MV4-11 cells; endogenous in cells; host or cells: MV4-11
In short: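 24 h compound exposure, MV4-11; RIPA lysates → SDS-PAGE → NC membrane; anti-SMARCA2/BRM, anti-BRG1, β-actin loading control; LI-COR fluorescence read. DC50 and Dmax at 24 h reported as letter bins.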

SMARCA2 [2] = target: T1, SMARCA2; test: SMARCA2 Western blot degradation in MV4-11 cells; design: SMARCA2/SMARCA4 protein degradation selectivity in MV4-11 cells; endogenous in cells; host or cells: MV4-11; conditions: for Dmax: MV4-11, MV4-11 cells, read-out: SMARCA2 MSD MV411 degradation 24 h: average Dmax %; for Dmax / DC50 / SMARCA2 MSD MV411 degradation 24 h: average Dmax %: 24 h; for DC50 / Selectivity in MV411 / SMARCA2 MSD MV411 degradation 24 h: average Dmax %: MV4-11 cells; for DC50: read-out: SMARCA2 MSD MV411 degradation 24 h: Mean external-Abs DC50; for Selectivity in MV411: SMARCA2/4 selectivity

T2 sequence (P51532 whole entry): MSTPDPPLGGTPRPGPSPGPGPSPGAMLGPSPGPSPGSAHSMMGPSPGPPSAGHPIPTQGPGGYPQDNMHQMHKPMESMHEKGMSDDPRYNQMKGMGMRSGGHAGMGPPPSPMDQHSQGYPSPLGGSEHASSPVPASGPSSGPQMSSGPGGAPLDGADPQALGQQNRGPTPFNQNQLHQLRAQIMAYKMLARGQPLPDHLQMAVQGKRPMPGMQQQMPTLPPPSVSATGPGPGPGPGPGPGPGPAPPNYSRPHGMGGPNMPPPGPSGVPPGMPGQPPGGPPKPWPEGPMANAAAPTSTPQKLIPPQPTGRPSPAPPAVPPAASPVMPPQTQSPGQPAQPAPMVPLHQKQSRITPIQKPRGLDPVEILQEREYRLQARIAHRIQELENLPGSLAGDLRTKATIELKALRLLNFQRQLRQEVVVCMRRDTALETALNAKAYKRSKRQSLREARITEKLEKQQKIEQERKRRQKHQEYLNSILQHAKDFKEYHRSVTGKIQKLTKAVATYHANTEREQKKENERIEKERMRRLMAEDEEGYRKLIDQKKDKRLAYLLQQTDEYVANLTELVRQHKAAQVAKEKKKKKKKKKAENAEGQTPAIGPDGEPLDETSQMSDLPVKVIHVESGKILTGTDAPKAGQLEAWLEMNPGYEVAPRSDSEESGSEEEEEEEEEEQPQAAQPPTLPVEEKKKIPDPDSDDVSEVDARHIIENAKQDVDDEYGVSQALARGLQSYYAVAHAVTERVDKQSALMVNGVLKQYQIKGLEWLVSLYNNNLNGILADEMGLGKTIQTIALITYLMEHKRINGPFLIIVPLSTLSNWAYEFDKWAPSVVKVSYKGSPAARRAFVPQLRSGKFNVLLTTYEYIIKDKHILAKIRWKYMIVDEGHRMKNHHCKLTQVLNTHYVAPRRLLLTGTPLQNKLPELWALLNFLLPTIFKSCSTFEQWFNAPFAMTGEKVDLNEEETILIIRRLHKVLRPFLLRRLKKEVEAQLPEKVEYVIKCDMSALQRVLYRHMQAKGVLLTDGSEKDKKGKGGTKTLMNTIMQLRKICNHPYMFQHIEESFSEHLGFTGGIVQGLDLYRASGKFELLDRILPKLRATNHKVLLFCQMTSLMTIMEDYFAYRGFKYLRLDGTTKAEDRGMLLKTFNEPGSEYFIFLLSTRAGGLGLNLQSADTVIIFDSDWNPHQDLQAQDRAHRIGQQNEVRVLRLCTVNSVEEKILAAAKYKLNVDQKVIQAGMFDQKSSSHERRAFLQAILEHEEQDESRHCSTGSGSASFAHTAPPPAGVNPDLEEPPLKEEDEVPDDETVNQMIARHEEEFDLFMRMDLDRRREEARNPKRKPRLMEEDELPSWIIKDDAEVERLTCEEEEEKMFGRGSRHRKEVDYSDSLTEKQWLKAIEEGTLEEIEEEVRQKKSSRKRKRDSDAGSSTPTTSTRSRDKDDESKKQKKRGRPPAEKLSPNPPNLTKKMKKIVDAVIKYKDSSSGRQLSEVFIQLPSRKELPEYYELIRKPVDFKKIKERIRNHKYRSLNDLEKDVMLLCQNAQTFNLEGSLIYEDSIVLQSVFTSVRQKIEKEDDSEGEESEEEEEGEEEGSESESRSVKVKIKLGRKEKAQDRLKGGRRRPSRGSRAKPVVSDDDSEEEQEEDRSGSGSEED
T1 sequence (P51531 whole entry): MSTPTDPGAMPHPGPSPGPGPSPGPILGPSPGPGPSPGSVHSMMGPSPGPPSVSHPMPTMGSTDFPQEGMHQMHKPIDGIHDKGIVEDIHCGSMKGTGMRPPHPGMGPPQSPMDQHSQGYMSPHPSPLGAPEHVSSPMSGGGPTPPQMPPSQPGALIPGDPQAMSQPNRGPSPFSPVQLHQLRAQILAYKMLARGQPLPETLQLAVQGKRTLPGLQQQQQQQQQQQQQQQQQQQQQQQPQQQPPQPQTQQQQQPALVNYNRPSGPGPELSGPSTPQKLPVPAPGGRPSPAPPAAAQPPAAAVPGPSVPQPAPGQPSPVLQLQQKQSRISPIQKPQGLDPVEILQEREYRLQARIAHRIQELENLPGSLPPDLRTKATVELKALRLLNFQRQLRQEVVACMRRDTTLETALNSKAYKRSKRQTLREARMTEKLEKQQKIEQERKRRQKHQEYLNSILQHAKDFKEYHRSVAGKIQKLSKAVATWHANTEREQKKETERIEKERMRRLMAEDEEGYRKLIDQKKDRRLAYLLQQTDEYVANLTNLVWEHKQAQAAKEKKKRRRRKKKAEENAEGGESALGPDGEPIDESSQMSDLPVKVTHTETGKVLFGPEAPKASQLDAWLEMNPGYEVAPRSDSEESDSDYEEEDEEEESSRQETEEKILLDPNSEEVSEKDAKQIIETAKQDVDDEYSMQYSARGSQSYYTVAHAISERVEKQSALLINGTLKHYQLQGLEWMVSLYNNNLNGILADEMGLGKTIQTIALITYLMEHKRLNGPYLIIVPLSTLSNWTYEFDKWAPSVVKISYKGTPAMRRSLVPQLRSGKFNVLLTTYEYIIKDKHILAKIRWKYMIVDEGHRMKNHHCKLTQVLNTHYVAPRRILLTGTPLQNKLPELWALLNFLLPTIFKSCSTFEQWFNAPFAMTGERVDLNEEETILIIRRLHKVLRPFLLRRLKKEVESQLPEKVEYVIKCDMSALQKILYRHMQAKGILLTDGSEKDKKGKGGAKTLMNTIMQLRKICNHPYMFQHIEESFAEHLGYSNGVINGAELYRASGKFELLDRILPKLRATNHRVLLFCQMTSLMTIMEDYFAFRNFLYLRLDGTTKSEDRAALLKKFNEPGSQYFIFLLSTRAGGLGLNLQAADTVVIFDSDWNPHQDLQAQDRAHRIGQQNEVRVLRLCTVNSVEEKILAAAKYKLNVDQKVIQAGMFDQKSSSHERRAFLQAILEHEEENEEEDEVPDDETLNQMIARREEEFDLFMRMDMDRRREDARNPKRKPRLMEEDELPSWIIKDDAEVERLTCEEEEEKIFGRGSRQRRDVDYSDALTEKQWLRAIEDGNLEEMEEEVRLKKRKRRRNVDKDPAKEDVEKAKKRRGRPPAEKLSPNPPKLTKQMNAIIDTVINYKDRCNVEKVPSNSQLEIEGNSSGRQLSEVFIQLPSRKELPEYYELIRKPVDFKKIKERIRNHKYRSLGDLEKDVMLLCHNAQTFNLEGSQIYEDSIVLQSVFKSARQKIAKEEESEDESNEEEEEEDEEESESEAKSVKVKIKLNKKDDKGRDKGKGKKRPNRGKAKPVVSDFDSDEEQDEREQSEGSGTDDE

SMILES	Dmax (SMARCA2 [1])	DC50 (SMARCA2 [1])	Dmax (SMARCA4)	DC50 (SMARCA4)	Dmax (SMARCA2 [2])	DC50 (SMARCA2 [2])	Selectivity in MV411 (SMARCA2 [2])	SMARCA2 MSD A549 degradation 24 h: Average Dmax % (SMARCA2 [1])	SMARCA4 MSD MV411 degradation 24 h: average Dmax % (SMARCA4)	SMARCA2 MSD MV411 degradation 24 h: average Dmax % (SMARCA2 [2])
CC(C)(C)[C@H](NC(=O)[C@H]1CCC2(CC1)C[C@H](N1CCC(c3cnc(N4CCN5c6cc(-c7ccccc7O)nnc6NC[C@H]5C4)nc3)CC1)C2)C(=O)N1C[C@H](O)C[C@H]1C(=O)NCC#Cc1ccc(Cl)cc1 (single isomer, unassigned) [I-101]	50 to 70%	> 100 nM	< 50%	> 100 nM	< 50%	> 100 nM	C (C (10-100 fold))			
C#Cc1ccc(CNC(=O)[C@@H]2C[C@@H](O)CN2C(=O)[C@@H](NC(=O)[C@H]2CCC3(CC2)C[C@H](N2CCC(c4cnc(N5CCN6c7cc(-c8cccc(F)c8O)nnc7NC[C@H]6C5)nc4)CC2)C3)C(C)(C)C)cc1 (single isomer, unassigned) [I-102]		10 to 50 nM	50 to 70%	> 100 nM	70 to 90%	1 to 10 nM	C (C (10-100 fold))	A (A (>90% degradation))		
CC#Cc1ccc(CNC(=O)[C@@H]2C[C@@H](O)CN2C(=O)[C@@H](NC(=O)[C@H]2CCC3(CC2)C[C@H](N2CCC(c4cnc(N5CCN6c7cc(-c8ccccc8O)nnc7NC[C@H]6C5)nc4)CC2)C3)C(C)(C)C)cc1 (single isomer, unassigned) [I-103]	> 90%	50 to 100 nM	70 to 90%	> 100 nM	50 to 70%	1 to 10 nM	C (C (10-100 fold))			
Cc1cc(Cl)ccc1C#CCNC(=O)[C@@H]1C[C@@H](O)CN1C(=O)[C@@H](NC(=O)[C@H]1CCC2(CC1)C[C@H](N1CCC(c3cnc(N4CCN5c6cc(-c7ccccc7O)nnc6NC[C@H]5C4)nc3)CC1)C2)C(C)(C)C (single isomer, unassigned) [I-104]		> 100 nM	70 to 90%	> 100 nM	< 50%	> 100 nM	C (C (10-100 fold))	A (A (>90% degradation))		
C#Cc1ccc(CNC(=O)[C@@H]2C[C@@H](O)CN2C(=O)[C@@H](NC(=O)[C@H]2CC3(C2)C[C@H](N2CCC(N4CCC(N5CCN6c7cc(-c8ccccc8O)nnc7NC[C@H]6C5)CC4)CC2)C3)C(C)(C)C)cc1 (single isomer, unassigned) [I-113]	> 90%	10 to 50 nM	50 to 70%	> 100 nM	70 to 90%	1 to 10 nM	B (B (>100-500 fold))			
CC(C)(C)[C@H](NC(=O)[C@H]1CCC2(CC1)C[C@H](N1CCC(c3cnc(N4CCN5c6cc(-c7ccccc7O)nnc6NC[C@H]5C4)nc3)CC1)C2)C(=O)N1C[C@H](O)C[C@H]1C(=O)NCC#Cc1ccc(Cl)cc1 (single isomer, unassigned) [I-114]		> 100 nM		> 100 nM		> 100 nM	C (C (10-100 fold))	D (D (<50% degradation))	D (D (<50% degradation))	D (D (<50% degradation))
CC#Cc1ccc(CNC(=O)[C@@H]2C[C@@H](O)CN2C(=O)[C@@H](NC(=O)[C@H]2CCC3(CC2)C[C@H](N2CCC(c4cnc(N5CCN6c7cc(-c8ccccc8O)nnc7NC[C@H]6C5)nc4)CC2)C3)C(C)(C)C)cc1 (single isomer, unassigned) [I-117]		> 100 nM		> 100 nM		10 to 100 nM	C (C (10-100 fold))	A (A (>90% degradation))	D (D (<50% degradation))	C (C (50-70% degradation))
C#Cc1ccc(CNC(=O)[C@@H]2C[C@@H](O)CN2C(=O)[C@@H](NC(=O)[C@H]2CCC3(CC2)C[C@H](N2CCN(c4cnc(N5CCN6c7cc(-c8ccccc8O)nnc7NC[C@H]6C5)nc4)CC2)C3)C(C)(C)C)cc1 (single isomer, unassigned) [I-122]	> 90%	10 to 50 nM	50 to 70%	10 to 100 nM	70 to 90%	1 to 10 nM	C (C (10-100 fold))			
Cc1cc(Cl)ccc1C#CCNC(=O)[C@@H]1C[C@@H](O)CN1C(=O)[C@@H](NC(=O)[C@H]1CCC2(CC1)C[C@H](N1CCC(c3cnc(N4CCN5c6cc(-c7ccccc7O)nnc6NC[C@H]5C4)nc3)CC1)C2)C(C)(C)C (single isomer, unassigned) [I-126]		> 100 nM		> 100 nM		> 100 nM	C (C (10-100 fold))	D (D (<50% degradation))	D (D (<50% degradation))	D (D (<50% degradation))

The remaining lines, values ahead:

Dmax (SMARCA2 [1])	DC50 (SMARCA2 [1])	Dmax (SMARCA4)	DC50 (SMARCA4)	Dmax (SMARCA2 [2])	DC50 (SMARCA2 [2])	Selectivity in MV411 (SMARCA2 [2])	SMARCA2 MSD A549 degradation 24 h: Average Dmax % (SMARCA2 [1])	SMARCA4 MSD MV411 degradation 24 h: average Dmax % (SMARCA4)	SMARCA2 MSD MV411 degradation 24 h: average Dmax % (SMARCA2 [2])	SMILES
> 90%	10 to 50 nM	< 50%	> 100 nM	70 to 90%	1 to 10 nM	A (A (>500 fold))				C#Cc1ccc(CNC(=O)[C@@H]2C[C@@H](O)CN2C(=O)[C@@H](NC(=O)[C@H]2CCC3(CC2)C[C@H](N2CCC(c4cnc(N5CCN6c7cc(-c8ccccc8O)nnc7NC[C@H]6C5)nc4)CC2)C3)C(C)(C)C)c(F)c1 (single isomer, unassigned) [I-97]
> 90%	10 to 50 nM	< 50%	> 100 nM	70 to 90%	1 to 10 nM	A (A (>500 fold))				C#Cc1ccc(CNC(=O)[C@@H]2C[C@@H](O)CN2C(=O)[C@@H](NC(=O)[C@H]2CCC3(CC2)C[C@H](N2CCC(c4cnc(N5CCN6c7cc(-c8ccccc8O)nnc7NC[C@H]6C5)nc4)CC2)C3)C(C)(C)C)c(Cl)c1 (single isomer, unassigned) [I-98]
	< 10 nM		> 100 nM		1 to 10 nM	B (B (>100-500 fold))	A (A (>90% degradation))	C (C (50-70% degradation))	B (B (>70-90% degradation))	C#Cc1ccc(CNC(=O)[C@@H]2C[C@@H](O)CN2C(=O)[C@@H](NC(=O)[C@H]2CCC3(CC2)C[C@H](N2CCC(c4cnc(N5CCN6c7cc(-c8ccccc8O)nnc7NC[C@H]6C5)nc4)CC2)C3)C(C)(C)C)c(Cl)c1 (single isomer, unassigned) [I-99]
	< 10 nM	70 to 90%	10 to 100 nM	> 90%	< 1 nM	C (C (10-100 fold))	A (A (>90% degradation))			C#Cc1ccc(CNC(=O)[C@@H]2C[C@@H](O)CN2C(=O)[C@@H](NC(=O)[C@H]2CCC3(CC2)C[C@H](N2CCC(c4cnc(N5CCN6c7cc(-c8ccccc8O)nnc7NC[C@H]6C5)nc4)CC2)C3)C(C)(C)C)c(OC)c1 (single isomer, unassigned) [I-100]
	10 to 50 nM		> 100 nM		1 to 10 nM	B (B (>100-500 fold))	A (A (>90% degradation))	D (D (<50% degradation))	B (B (>70-90% degradation))	C#Cc1ccc(CNC(=O)[C@@H]2C[C@@H](O)CN2C(=O)[C@@H](NC(=O)[C@H]2CCC3(CC2)C[C@H](N2CCC(c4cnc(N5CCN6c7cc(-c8ccccc8O)nnc7NC[C@H]6C5)nc4)CC2)C3)C(C)(C)C)c(F)c1 (single isomer, unassigned) [I-116]
> 90%	< 10 nM		> 100 nM		1 to 10 nM	C (C (10-100 fold))		C (C (50-70% degradation))	B (B (>70-90% degradation))	C#Cc1ccc(CNC(=O)[C@@H]2C[C@@H](O)CN2C(=O)[C@@H](NC(=O)[C@H]2CCC3(CC2)C[C@H](N2CCC(c4cnc(N5CCN6c7cc(-c8ccccc8O)nnc7NC[C@H]6C5)nc4)CC2)C3)C(C)(C)C)c(OC)c1 (single isomer, unassigned) [I-125]
> 90%	10 to 50 nM	> 90%	10 to 100 nM	> 90%	1 to 10 nM	C (C (10-100 fold))				C#Cc1ccc(CNC(=O)[C@@H]2C[C@@H](O)CN2C(=O)[C@@H](NC(=O)[C@H]2CCC3(CC2)C[C@H](N2CCC(c4cnc(N5CCN6c7cc(-c8ccccc8O)nnc7NC[C@H]6C5)nc4)CC2)C3)C(C)(C)C)c(OCCCN(C)C)c1 (single isomer, unassigned) [I-129]
> 90%	< 10 nM	> 90%	10 to 100 nM	> 90%	1 to 10 nM	D (D (<10 fold))				C#Cc1ccc(CNC(=O)[C@@H]2C[C@@H](O)CN2C(=O)[C@@H](NC(=O)[C@H]2CCC3(CC2)C[C@H](N2CCC(c4cnc(N5CCN6c7cc(-c8ccccc8O)nnc7NC[C@H]6C5)nc4)CC2)C3)C(C)(C)C)c(OCCCOC)c1 (single isomer, unassigned) [I-130]
